The values below come from patent US20030175906A1, “Nuclease resistant chimeric oligonucleotides” (priority 2001, published 2003).

The term ΔTm denotes the change in melting temperature against a reference sample.

One data set concerns Target RNA. Nature of the data set: Tm values of L-thymidine modified oligonucleotides against RNA. The format is binding.
Data set [1] is described as follows: In vivo nuclease stability of L/D-oligonucleotide chimera, full-length oligonucleotide in organs by CGE. Details: species or system BalbC mouse. Particulars: IV bolus, after 24 h. Here is the method: Here we report the in vivo nuclease stability of L/D-oligonucleotide chimera in mouse. We synthesized the phosphoramidite and CPG derived from L-thymidine, which was synthesized from a novel route [Jung, E. M.; Xu, Y. Tetrahedron Lett. 1997, 24, 4199-4202]. A 20 mer phosphorothioate oligonucleotide ISIS-120745 (antisense to mouse ICAM-1) was capped with L-2′-deoxy thymidine at 3′ and 5′-positions. The oligonucleotide was then administered IV bolus into BalbC mouse. After 24 h. mouse was sacrificed and the oligonucleotide was isolated from different organs. Percentage of full-length oligonucleotide present in different organs were analyzed by CGE.

As for “ISIS 121785: 5′ T*C^oC^oGCGCTGTGATGCA^oT^oT* 3′ (SEQ ID NO:2), L-thymidine caps, 2′-O-MOE, all P=S (DNA NNNCGCTGTGATGCNNN; L-thymidine caps, 2'-O-MOE, phosphorothioate, chemistry not fully specified)”, in the data set with Target RNA, the “Tm, Target RNA” value is 63.3 °C and the ΔTm worked out at 2.7 °C.

With “ISIS 120745: 5′ T*GC ATC CCC CAG GCC ACC AT* 3′, T* = L-Thymidine, all P=S; antisense to mouse ICAM-1 (antisense TGCATCCCCCAGGCCACCAT; chemistry not fully specified)”, the ΔTm in the data set with Target RNA is −1.76 °C. Also, in data set [1], the “intact full-length oligonucleotide isolated from all the major organs” value is > 90%.
